# Experimental data: PMC3755991, “Crystal Structure and Substrate Specificity of D-Galactose-6-Phosphate Isomerase Complexed with Substrates” (PLoS ONE, 2013)
# Columns and labels:
# [1] = biological target: T1, LacAB (D-galactose-6-phosphate isomerase) (Lacticaseibacillus rhamnosus, UniProt A0A7S7FMU0+A0ABF7SXF6); assay: X-ray crystal structure, soaking; assay type: binding; settings: converted in the crystal, active site
# T1 construct: gene LRHM_0645; full-length LacA (142 residues) and LacB (172 residues) co-expressed in E. coli BL21(DE3), pQE-80L, N-terminal His6
# [2] = biological target: D-galactose-6-phosphate isomerase LacAB from Lactobacillus rhamnosus (heterodimer of LacA and LacB) (Lactobacillus rhamnosus); assay: SEC-MALS; purified LacAB on Superdex 200 10/300 GL, 50 mM Tris-HCl pH 7.5, 200 mM NaCl, 1 mL/min
# [3] = biological target: T1, LacAB (D-galactose-6-phosphate isomerase); assay: conversion to D-psicose in soaked crystal; assay type: binding; settings: 40 mM soak for 2 hr; D-psicose seen in the electron density
compound,measurement,setting,value
OCC1(O)OC[C@@H](O)[C@@H](O)[C@H]1O (stereo partly drawn) [D-psicose],"X-ray crystal structure, soaking",[1]; crystal soaked in 40 mM D-allose for 2 hr,4LFM for its complex with D-psicose
O=C(CO)[C@H](O)[C@H](O)CO [D-ribulose],"X-ray crystal structure, soaking",[1]; crystal soaked in 45 mM D-ribose for 2 hr,4LFN for its complex with D-ribulose
D-galactose-6-phosphate isomerase LacAB from Lactobacillus rhamnosus (heterodimer of LacA and LacB) (from UniProt A0ABF7SXF6 1-172) (complex),stoichiometry N,[2],4
OC[C@H]1OC(O)[C@H](O)[C@H](O)[C@@H]1O (stereo partly drawn) [D-allose],conversion to D-psicose in soaked crystal,[3],"D-allose and D-ribose revealed that the substrates are converted to D-psicose and D-ribulose, respectively"
